The text below walks through data of patent US20230027864A1, “COMPOSITIONS AND METHODS FOR DELIVERY OF AGENTS TO IMMUNE CELLS” (ModernaTX, Inc., priority 2018, published 2023).

The test system of assay [1] is T cells. Briefly: Additional LNPs: T cell transfection in vitro, mOX40L mRNA, labeled LNPs. It is filed as cell-based, human. Conditions: for immune cell delivery potentiating ability in T cells, amino lipid panel: ionizable lipid component, FIG. 43. How it is done:
In this Example, additional LNPs comprising various lipid components and at different ratios were made and tested for their ability to transfect T cells in vitro. Transfection was performed as in Example 5 using LNPs encapsulating an mRNA encoding mouse OX40L. LNPs were labeled and the results were determined for the mean % cells with LNPs associated, the mean % cells expressing mOX40L and the % of LNP-associated cells expressing mOX40L, as described hereinbefore.

The subject of assay [2] is T cells. As to the kind of experiment: LNP association and GFP mRNA expression in T cells of human PBMCs. Type of assay: cell-based. Conditions: for immune cell delivery potentiating ability in T cells, helper lipid panel: phospholipid component of the LNP, FIG. 32; for delivery and uptake by T cells, only cholesterol as structural lipid: Experiment 2, mean % cells expressing the mRNA relative to positive control (Compound X, β-sitosterol); for immune cell delivery potentiating ability in T cells, amino lipid panel: ionizable lipid component of the LNP, FIG. 30; for immune cell delivery potentiating ability in T cells, sterol panel: structural lipid component of the LNP, FIG. 31. As to the method: (§1) In a second series of experiments, additional compounds, were tested in the LNPs for their ability to enhance delivery to T cells. For these experiments, the association of the LNP with cells and the expression of mRNA-encoding protein within the transfected cells was assessed at the cell-by-cell level. Peripheral blood mononuclear cells (PBMCs) from human donors were used. PBMCs were predominately T cells (40-60%), B cells (3-15%), and monocytes (15-35%), but also contained small numbers of other cell types. LNPs were incubated with serum or PBS for 30 minutes and then added to the PBMCs. The LNP concentration was 0.050 mg/ml, the LNP volume was 0.1 ml.
(§2) LNPs contained 0.1% Rhodamine-DOPE in addition to the other LNP components to facilitate detection. Thus, the ratios set forth in the tables below include 0.1 for the rhodamine label. For example, 50:10:10:27.9:2:0.1 AL:DSPC:chol:sterol:Cmp 428 indicates 50% amino lipid as the ionizable lipid, 10% DSPC as the phospholipid, 10% cholesterol, 27.9% phytosterol, 2% Compound 428 as the PEG lipid and 0.1% for the rhodamine-DOPE label. To prepare a non-labeled LNP, the same ratios are used except that the 0.1% rhodamine label is omitted and an additional 0.1% of structural lipid (cholesterol or cholesterol/phytosterol blend) is used (e.g., 27.9% becomes 28%).
(§3) Cells were sorted by flow cytometry into subsets based on expression of certain markers: CD3 (T cells), CD20 (B cells), and CD3-, CD20-, CD14+(Monocytes).
(§4) mRNA encoding GFP was used as a model agent to effect expression of an intracellular protein.
(§5) When conducting flow cytometry, the Y-axis was signal from the rhodamine tag on the LNP and the X-axis was the GFP signal showing expression of the protein.
(§6) The “associated” population is any rhodamine+ and/or GFP+ cell and the percent of these cells was calculated by dividing by the total number of cells. The “expression” population is any GFP+ cell and the percent of these cells was calculated by dividing by the total number of cells. The percent of associated cells expressing was obtained by dividing the % expressing cells by the % associated cells.

Assay [3] concerns monocytes. Briefly: LNP association and GFP mRNA expression in monocytes of human PBMCs. Type of assay: cell-based. Conditions: for immune cell delivery potentiating ability in monocytes, helper lipid panel: phospholipid component, FIG. 39; for immune cell delivery potentiating ability in monocytes, sterol panel: structural lipid component, FIG. 38; for immune cell delivery potentiating ability in monocytes, amino lipid panel: ionizable lipid component, FIG. 37. How it is done:
as §1, with “this Example, LNPs were made with various lipid components and at different ratios and” for “a second series of experiments, additional compounds,”, “tested” for “tested in the LNPs”, “transfect monocytes in vitro.” for “enhance delivery to T cells.”, “(40-60%)” for “(40-60%),”
as §2, §3, §4, §5, §6

In assay [4] the test system is splenic CD3+ T cells. Briefly: Transfection of splenic T cells in vivo in mice. The settings on record: for transfection of CD3+ T cells in vivo, only cholesterol as structural lipid: FIG. 36 lanes 6 and 8, relative to positive control LNP (Compound X, β-sitosterol); for capability to transfect splenic CD3+ T cells in vivo: as ionizable lipid, 0.5 mg/kg i.v., 24 hours, FIG. 36. How it is done:
In this Example, LNPs were made with various lipid components identified in the in vitro screens described in Example 17 and mice were administered the LNPs encapsulating a murine OX40L-encoding mRNA. The compositions shown below in Table 26 were tested in which the ratios of the components in each composition was 50% ionizable lipid, 10% phospholipid, 38.5% structural lipid and 1.5% PEG lipid.
Mice were treated intravenously with a single injection at a dose concentration of 0.1 mg/ml and at a dose level of 0.5 mg/kg. PBS was used as a negative control.

On to `CCCCCCCCCCCCCCCCCC(=O)OCC(COP(=O)([O-])OCC[N+]1(C)CCOCC1)OC(=O)CCCCCCCCCCCCCCCCC` (stereo not drawn) [Compound H-409], for which the “immune cell delivery potentiating ability in T cells, helper lipid panel” value in assay [1] (phospholipid component, FIG. 45) is given as “exhibited immune cell delivery potentiating ability in T cells”; in assay [2] it was “exhibited immune cell delivery potentiating ability in T cells”. The “immune cell delivery potentiating ability in monocytes, helper lipid panel” value in assay [3] is on record as “exhibited immune cell delivery potentiating ability in monocytes”.

For the molecule `CC[C@H](/C=C/[C@@H](C)[C@H]1CC[C@H]2[C@@H]3CC=C4C[C@@H](O)CC[C@]4(C)[C@H]3CC[C@]12C)C(C)C` [stigmasterol, reference compound], in assay [3], the “immune cell delivery potentiating ability in monocytes, sterol panel” value was “exhibited immune cell delivery potentiating ability in monocytes”.

In the case of `CCCCCCCCCCCCCC(=O)OCC(COP(=O)(O)OCCN)OC(=O)CCCCCCCCCCCCC` (stereo not drawn) [DMPE], the “immune cell delivery potentiating ability in T cells, helper lipid panel” value in assay [2] was “exhibited immune cell delivery potentiating ability in T cells”. Besides, the “immune cell delivery potentiating ability in monocytes, helper lipid panel” value in assay [3] is listed as “exhibited immune cell delivery potentiating ability in monocytes”.

As for `CCCCCCCCC(CCCCCCCC)OC(=O)CCCCCCCN(CCCCCCCC(=O)OCC(C)CCCCCCC)CCCNc1c(NC)c(=O)c1=O` (stereo not drawn) [Compound I-321], in assay [1], the “immune cell delivery potentiating ability in T cells, amino lipid panel” value is given as “exhibited immune cell delivery potentiating ability in T cells”. Moreover, in assay [2], the “delivery and uptake by T cells, only cholesterol as structural lipid” value was “effective at potentiating delivery and uptake by T cells”; the “immune cell delivery potentiating ability in T cells, amino lipid panel” value is “exhibited immune cell delivery potentiating ability in T cells”. In assay [4], the “transfection of CD3+ T cells in vivo, only cholesterol as structural lipid” value is recorded as “effective at potentiating transfecting CD3+ T cells in vivo” and the “capability to transfect splenic CD3+ T cells in vivo” value (“capability” for short) is recorded as “even higher capability to transfect splenic CD3+ T cells in vivo than the positive control LNP containing Compound X”.

Turning to `CCCCCCCCCOC(=O)CCCCCCCN(CCCCCCCC(=O)OC(CCCCCCCC)CCCCCCCC)CCCNc1c(NC)c(=O)c1=O` [Compound I-182, Heptadecan-9-yl 8-((3-((2-(methylamino)-3,4-dioxocyclobut-1-en-1-yl)amino)propyl)(8-(nonyloxy)-8-oxooctyl)amino)octanoate], the “immune cell delivery potentiating ability in T cells, amino lipid panel” value in assay [1] and in assay [2] was “exhibited immune cell delivery potentiating ability in T cells” in each case. The “immune cell delivery potentiating ability in monocytes, amino lipid panel” value in assay [3] is given as “exhibited immune cell delivery potentiating ability in monocytes”.

As to `CCCCCCCCCOC(=O)CCCCCCCN(CCCCCCCOC(=O)C(CCCCCCCC)CCCCCCCC)CCCNc1c(NC)c(=O)c1=O` [Compound I-326], the “immune cell delivery potentiating ability in T cells, amino lipid panel” value in assay [1] is “exhibited immune cell delivery potentiating ability in T cells”. In assay [2], the “delivery and uptake by T cells, only cholesterol as structural lipid” value is “effective at potentiating delivery and uptake by T cells”; the “immune cell delivery potentiating ability in T cells, amino lipid panel” value is reported as “exhibited immune cell delivery potentiating ability in T cells”. Also, in assay [4], the “transfection of CD3+ T cells in vivo, only cholesterol as structural lipid” value is listed as “effective at potentiating transfecting CD3+ T cells in vivo” and the “capability” value is “even higher capability to transfect splenic CD3+ T cells in vivo than the positive control LNP containing Compound X”.

For the molecule `CCCCCCCCC(CC)OC(=O)CCCCCCCN(CCCCCCCC(=O)OC(CCCCCCCC)CCCCCCCC)CCCNc1c(NC)c(=O)c1=O` (stereo not drawn) [Compound I-301, Heptadecan-9-yl 8-((3-((2-(methylamino)-3,4-dioxocyclobut-1-en-1-yl)amino)propyl)(8-oxo-8-(undecan-3-yloxy)octyl)amino)octanoate], the “immune cell delivery potentiating ability in T cells, amino lipid panel” value in assay [1] and in assay [2] was “exhibited immune cell delivery potentiating ability in T cells” in each case. In addition, the “capability” value in assay [4] is on record as “even higher capability to transfect splenic CD3+ T cells in vivo than the positive control LNP containing Compound X”.

For the molecule `CCCCCCCCCOC(=O)CCCCCCCN(CCCCCCCC(=O)OC(CCCCCCCC)CCCCCCCC)CCCNS(C)(=O)=O` [Compound I-109], the “immune cell delivery potentiating ability in T cells, amino lipid panel” value in assay [2] is “exhibited immune cell delivery potentiating ability in T cells”. The “immune cell delivery potentiating ability in monocytes, amino lipid panel” value in assay [3] is “exhibited immune cell delivery potentiating ability in monocytes”.

As for `CC[C@H](CC[C@@H](C)[C@H]1CC[C@H]2[C@@H]3CC=C4C[C@@H](O)CC[C@]4(C)[C@H]3CC[C@]12C)C(C)C` [β-sitosterol, beta-sitosterol, reference compound], the “immune cell delivery potentiating ability in T cells, sterol panel” value in assay [2] is reported as “exhibited immune cell delivery potentiating ability in T cells”. In addition, the “immune cell delivery potentiating ability in monocytes, sterol panel” value in assay [3] was “exhibited immune cell delivery potentiating ability in monocytes”.

As to `CCCCCCCC/C=C\CCCCCCCC(=O)OC[C@H](COP(=O)([O-])OCC[N+](C)(C)C)OC(=O)CCCCCCC/C=C\CCCCCCCC` [DOPC, 1,2-dioleoyl-sn-glycero-3-phosphocholine, reference compound], in assay [3], the “immune cell delivery potentiating ability in monocytes, helper lipid panel” value is listed as “exhibited immune cell delivery potentiating ability in monocytes”.

`CC[C@H](CC[C@@H](C)[C@H]1CC[C@H]2[C@@H]3CC[C@H]4C[C@@H](O)CC[C@]4(C)[C@H]3CC[C@]12C)C(C)C` [β-sitostanol]: in assay [2], the “immune cell delivery potentiating ability in T cells, sterol panel” value was “exhibited immune cell delivery potentiating ability in T cells”. Besides, the “immune cell delivery potentiating ability in monocytes, sterol panel” value in assay [3] was “exhibited immune cell delivery potentiating ability in monocytes”.

For `CCCCCCCCCOC(=O)CCCCCCCN(CCCCCCCC(=O)OC(CCCCCCCC)CCCCCCCC)CCCNC(=O)OC` [Compound I-181], the “immune cell delivery potentiating ability in T cells, amino lipid panel” value in assay [1] and in assay [2] was “exhibited immune cell delivery potentiating ability in T cells” throughout. In addition, the “immune cell delivery potentiating ability in monocytes, amino lipid panel” value in assay [3] was “exhibited immune cell delivery potentiating ability in monocytes”.

Turning to `CC(C)[C@H](C)CC[C@@H](C)[C@H]1CC[C@H]2[C@@H]3CC=C4C[C@@H](O)CC[C@]4(C)[C@H]3CC[C@]12C` [camposterol], the “immune cell delivery potentiating ability in T cells, sterol panel” value in assay [2] is listed as “exhibited immune cell delivery potentiating ability in T cells”. In addition, the “immune cell delivery potentiating ability in monocytes, sterol panel” value in assay [3] is listed as “exhibited immune cell delivery potentiating ability in monocytes”.

As to `CCCCCCCCCCC(=O)CCCCCCCN(CCCCCCCC(=O)OC(CCCCCCCC)CCCCCCCC)CCCNC(=S)N(C)C` [Compound I-111], in assay [2], the “immune cell delivery potentiating ability in T cells, amino lipid panel” value was “exhibited immune cell delivery potentiating ability in T cells”. For the same molecule, in assay [3], the “immune cell delivery potentiating ability in monocytes, amino lipid panel” value is “exhibited immune cell delivery potentiating ability in monocytes”.
